# In ChEMBL document CHEMBL3886681, “Rotenone derivatives and a use thereof” (2016):
# Target: T1, Pancreatic triacylglycerol lipase (Sus scrofa, UniProt P00591)
# T1 sequence (P00591 whole entry): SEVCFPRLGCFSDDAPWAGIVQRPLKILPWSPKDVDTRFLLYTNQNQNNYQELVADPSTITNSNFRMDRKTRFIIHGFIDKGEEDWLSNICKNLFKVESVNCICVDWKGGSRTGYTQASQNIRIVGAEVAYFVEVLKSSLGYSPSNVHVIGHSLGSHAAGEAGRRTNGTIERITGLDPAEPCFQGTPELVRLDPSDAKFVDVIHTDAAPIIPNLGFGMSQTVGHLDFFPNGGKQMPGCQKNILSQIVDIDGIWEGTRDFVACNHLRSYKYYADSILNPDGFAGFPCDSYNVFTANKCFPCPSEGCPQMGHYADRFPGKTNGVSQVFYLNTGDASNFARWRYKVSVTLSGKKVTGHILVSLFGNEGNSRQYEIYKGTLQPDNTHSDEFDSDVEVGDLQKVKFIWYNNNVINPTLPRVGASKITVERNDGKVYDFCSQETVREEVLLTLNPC
# Assay: Inhibition Assay: Particularly, pancreatic lipase inhibiting activity was measured by the conventional method known to those in the art (Kim, J. H.; Kim, H. J.; Park, H. W.; Youn, S. H.; Choi, D. Y.; Shin, C. S. FEMS Microbiol. Lett. 2007, 276, 93.). To prepare the enzyme buffer, 30 mL (10 units) of pig pancreatic lipase solution (Sigma, St. Louis, Mo.) and 1 mM EDTA (pH 6.8) were mixed with 10 mM MOPS (morpholinepropanesulphonic acid), which was added to 850 mL of tris buffer (100 mM Tris-HCl and 5 mM CaCl2, pH 7.0). Then, 100 mL of the rotenoisin A or B of the present invention was mixed with the prepared enzyme buffer at the experimental concentration. […] 20 mL of substrate solution containing 20 mM p-nitrophenylbutyrate dissolved in dimethyl formaide was added to the enzyme buffer, followed by culture for 15 minutes at 37° C. that was the temperature adequate for enzyme reaction.
structure (smiles),measurement,value
C=C(C)[C@H]1Cc2c(ccc3c2OC2COc4cc(OC)c(OC)cc4C2[C@@]32CO2)O1 (stereo partly specified),IC50,6.3 µM
